target: adenosine kinase (Homo sapiens, UniProt P55263); experiment: inhibition of adenosine kinase activity in vitro; type: biochemical; details: Table 1, adenosine kinase
Excerpt: The adenosine kinase to be inhibited can be located in vitro, in situ or in vivo. Where the adenosine kinase is located in vitro, adenosine kinase is contacted with the inhibitor compound, typically by adding the compound to an aqueous solution containing the enzyme, radiolabeled substrate adenosine, magnesium chloride and ATP. The enzyme can exist in intact cells or in isolated subcellular fractions containing the enzyme. The enzyme is then maintained in the presence of the inhibitor for a period of time and under suitable physiological conditions. Means for determining maintainence times are well known in the art and depend inter alia on the concentrations of enzyme and the physiological conditions. Suitable physiological conditions are those necessary to maintain adenosine kinase viability and include temperature, acidity, tonicity and the like. Inhibition of adenosine kinase can be performed, by example, according to standard procedures well known in the art (Yamada, et al, Comp. Biochem. Physiol. 1982, 71B: 367-372).
In vitro adenosine kinase activity can be measured using any of the standard procedures well known in the art. By way of example, cells containing adenosine kinase, such as IMR-32 human -neuroblastoma cells, are cultured in the presence and absence of an inhibitor. Inhibition is measured as the ability to inhibit phosphorylation of endogenous or externally applied ^14 C-adenosine by these cells. The cells can be intact or broken. The specificity of adenosine kinase inhibitory activity is determined by studying the effects of inhibitors on adenosine A1 and A2a receptor binding, adenosine deaminase activity and adenosine transport.
Numerous inhibitor compounds of the present invention were tested in vitro and found to inhibit adenosine kinase activity. The results of some representative studies are shown below in Tables 1 and 2.

Chain of adenosine kinase (Homo sapiens, UniProt P55263) (P55263 whole entry, species assumed): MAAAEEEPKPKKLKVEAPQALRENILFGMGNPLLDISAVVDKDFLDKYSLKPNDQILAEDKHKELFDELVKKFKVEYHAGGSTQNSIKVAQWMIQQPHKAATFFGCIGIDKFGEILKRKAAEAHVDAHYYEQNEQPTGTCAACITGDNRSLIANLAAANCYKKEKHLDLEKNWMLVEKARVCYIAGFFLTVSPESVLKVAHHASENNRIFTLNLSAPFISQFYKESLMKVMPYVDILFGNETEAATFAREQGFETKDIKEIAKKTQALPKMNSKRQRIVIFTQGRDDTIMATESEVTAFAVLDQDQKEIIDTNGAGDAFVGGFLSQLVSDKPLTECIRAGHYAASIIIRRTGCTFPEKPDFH

Question: Which IC50 does the source give for Nc1ncnc2c1c(I)cn2[C@@H]1C[C@H](Nc2ccc(Cl)nn2)[C@@H](O)[C@H]1O here?
Answer: The IC50 was 20 nM.

Question: For Nc1ncnc2c1c(I)cn2[C@@H]1C[C@H](Nc2ncccn2)[C@@H](O)[C@H]1O, which IC50 is on record?
Answer: Its IC50 is 38 nM.

Question: Which IC50 does the source give for O[C@@H]1[C@H](O)[C@@H](Nc2ccc(Br)cc2)C[C@H]1n1cc(I)c2c(Cl)ncnc21 here?
Answer: The IC50 was 15 nM.

Question: Which IC50 does the source give for CC(C)(C)OC(=O)[C@H](CC(N)=O)N[C@H]1C[C@@H](n2cc(I)c3c(Cl)ncnc32)[C@H](O)[C@@H]1O here?
Answer: The IC50 was 200 nM.

Question: For NC(=O)C[C@H](N[C@H]1C[C@@H](n2cc(I)c3c(Cl)ncnc32)[C@H](O)[C@@H]1O)C(=O)O, which IC50 is on record?
Answer: Its IC50 is 48 nM.

Question: With CC(C)(C)OC(=O)[C@H](CC(N)=O)N([C@H]1C[C@@H](n2cc(I)c3c(Cl)ncnc32)[C@H](O)[C@@H]1O)S(=O)(=O)c1ccc([N+](=O)[O-])cc1[N+](=O)[O-] as the compound, how does the IC50 read?
Answer: Its IC50 is 350 nM.

Question: Which IC50 does the source give for N[C@@H]1C=C[C@H](n2cc(I)c3c(Cl)ncnc32)C1 here?
Answer: Its IC50 is 3000 nM.

Question: With N[C@@H]1CC[C@H](n2cc(I)c3c(Cl)ncnc32)C1 as the compound, how does the IC50 read?
Answer: The IC50 was 330 nM.

Question: With O=C(O)CN[C@H]1C[C@@H](n2cc(I)c3c(Cl)ncnc32)[C@H](O)[C@@H]1O [drawing 14: R4=HO2 CCH2 NH; R5=Cl; R6=I, N7-((1'R,2'S,3'R,4'S)-2',3'-dihydroxy-4'-(carboxymethylene)amino-cyclopentyl)-4-chloro-5-iodo-pyrrolopyrimidine] as the compound, how does the IC50 read?
Answer: The IC50 was 150 nM.

Question: With N[C@H]1C[C@@H](n2cc(C#Cc3ccccc3)c3c(C#Cc4ccccc4)ncnc32)[C@H](O)[C@@H]1O [drawing 14: R4=NH2; R5=C≡C--Ph; R6=C≡C--Ph] as the compound, how does the IC50 read?
Answer: Its IC50 is 4 nM.

Question: Which IC50 does the source give for N[C@H]1C[C@@H](n2cc(-c3ccccc3)c3c(Nc4ccccc4)ncnc32)[C@H](O)[C@@H]1O [drawing 14: R4=NH2; R5=NHPh; R6=Ph] here?
Answer: Its IC50 is 35 nM.

Question: With CC(C)(C)OC(=O)CN[C@H]1C[C@@H](n2cc(I)c3c(Cl)ncnc32)[C@H](O)[C@@H]1O [drawing 14: R4=t-buOCOCH2 NH; R5=Cl; R6=I, N7-((1'R,2'S,3'R,4'S)-2',3'-dihydroxy-4'-(t-butoxycarbonyl-methylene)amino-cyclopentyl)-4-chloro-5-iodo-pyrrolopyrimidine] as the compound, how does the IC50 read?
Answer: Its IC50 is 28 nM.

same assay, conditions: Table 2, adenosine kinase

Question: Which IC50 does the source give for O=C(Cc1ccccn1)N[C@H]1C[C@@H](n2cc(I)c3c(Cl)ncnc32)[C@H](O)[C@@H]1O here?
Answer: Its IC50 is 175 nM.

Question: With O=C(Cc1cccnc1)N[C@H]1C[C@@H](n2cc(I)c3c(Cl)ncnc32)[C@H](O)[C@@H]1O as the compound, how does the IC50 read?
Answer: The IC50 was 250 nM.

Question: Which IC50 does the source give for CC(=O)O[C@@H]1[C@H](OC(C)=O)[C@@H](OC(C)=O)C[C@H]1n1cc(Cl)c2c(Cl)ncnc21 [drawing 24: R5=Cl; R6=Cl, N7-((1'R,2'S,3'R,4'S)-2',3',4'-triacetoxycyclopentyl)-4,5-dichloro-pyrrolopyrimidine] here?
Answer: The IC50 was over 10000 nM.

Question: Which IC50 does the source give for CC(=O)O[C@@H]1[C@H](OC(C)=O)[C@@H](OC(C)=O)C[C@H]1n1cc(I)c2c(Cl)ncnc21 [drawing 24: R5=Cl; R6=I, N7-((1'R,2'S,3'R,4'S)-2',3',4'-triacetoxycyclopentyl)-4-chloro-5-iodo-pyrrolopyrimidine] here?
Answer: Its IC50 is over 100000 nM.

Question: With CN(C)CC(=O)N[C@H]1C[C@@H](n2cc(I)c3c(Cl)ncnc32)[C@H](O)[C@@H]1O [drawing 27: R=(CH3)2 NCH2 CO, N7-((1'R,2'S,3'R,4'S)-2',3'-dihydroxy-4'-(dimethylaminoacetyl)amino-cyclopentyl)-4-chloro-5-iodo-pyrrolopyrimidine] as the compound, how does the IC50 read?
Answer: Its IC50 is 480 nM.

Question: Which IC50 does the source give for COC(=O)N[C@H]1C[C@@H](n2cc(I)c3c(Cl)ncnc32)[C@H](O)[C@@H]1O [drawing 27: R=CH3 OCO, N7-((1'R,2'S,3'R,4'S)-2',3'-dihydroxy-4'-(methoxycarbonyl)amino-cyclopentyl)-4-chloro-5-iodo-pyrrolo-pyrimidine] here?
Answer: The IC50 was 300 nM.

Question: For NCC(=O)N[C@H]1C[C@@H](n2cc(I)c3c(Cl)ncnc32)[C@H](O)[C@@H]1O [drawing 27: R=NH2 CH2 CO, N7-((1'R,2'S,3'R,4'S)-2',3'-dihydroxy-4'-(amino-acetyl)amino-cyclopentyl)-4-chloro-5-iodo-pyrrolopyrimidine], which IC50 is on record?
Answer: Its IC50 is 32 nM.

tested on: adenosine kinase; experiment: not given; details: literature, in words; cited from earlier work

Question: Which “reported to inhibit adenosine kinase; the most potent” value (“reported to inhibit adenosine kinase” below) does the source give for NC[C@H]1O[C@@H](n2cnc3c(N)ncnc32)[C@H](O)[C@@H]1O [5'-amino,5'-deoxyadenosine] here?
Answer: Its value is “most potent”.

Question: With C[C@H]1O[C@@H](n2cc(I)c3c(N)ncnc32)[C@H](O)[C@@H]1O [5'-deoxy-5-iodotubercidin] as the compound, how does the “reported to inhibit adenosine kinase” value read?
Answer: Its value is “most potent”.

Question: Which “reported to inhibit adenosine kinase” value does the source give for Nc1ncnc2c1c(I)cn2[C@@H]1O[C@H](CO)[C@@H](O)[C@H]1O [5-iodotubercidin] here?
Answer: Its value is “most potent”.

From patent US6143749A, “Heterocyclic substituted cyclopentane compounds” (Abbott Laboratories, priority 1996, dated 2000)
